# Reference: patent US8232407B2, “Nitrogenous heterocyclic compounds with insecticidal activity, and the preparation and use thereof” (East China University of Science and Technology, priority 2008, dated 2012)
# Read-outs that look alike come from different tables or passages of the source.
# Key:
# Assay type in all cases: in vivo
# [1] = test system: Pseudaletia separate Walker; assay: Insecticidal activities to armyworm, leaf dipping and feeding; details: for mortality at 500 ppm: Zea mays, foliar, read-out: Pseudaletia separate Walker Mortality (%) 500 ppm
# Summary of the method: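 Armyworms (10 per tumbler, 3 replicates) ate fresh maize leaves that had been immersed for 3 seconds in compound solutions of 1.57-500 ppm in acetone, or in aqueous acetone for controls. Kills were scored at 24 h, and mortality was calculated relative to survivors in the control group.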
# Aphis craccivoral = assay: Insecticidal activities to aphids, immersion method; details: for Aphis craccivoral Mortality (%) 500 ppm: in vivo; for mortality at 500 ppm: Aphis, read-out: Aphis craccivoral Mortality (%) 500 ppm
# Summary of the method: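 Immersion assay: compound diluted from 10 g/L DMF stock to 500 ppm in 0.2 mL/L Triton X-100, sprout-feeding wingless adults dipped 5 s. Kept at 23° C, three repeats; 24 h mortality calculated relative to surviving Triton-treated controls.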
# Nilaparvata lugens = assay: Insecticidal activities to plant hopper, spraying method; details: for Nilaparvata lugens Mortality (%) 500 ppm: in vivo; for mortality at 500 ppm: Nilaparvata lugens, read-out: Nilaparvata lugens Mortality (%) 500 ppm
# Summary of the method: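 Spray test: acetone solutions of 500 down to 0.79 ppm, 2 ml per tumbler holding 10 planthoppers introduced 6 h earlier, triplicate, aqueous acetone as control. Mortality at 24 h calculated from survivors relative to control.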
# Plutella xylostella = assay: Insecticidal activities to diamondback moth, feeding dipped leaves; details: for Plutella xylostella Mortality (%) 500 ppm: in vivo; for mortality at 500 ppm: Plutella xylostella, read-out: Plutella xylostella Mortality (%) 500 ppm
# Summary of the method: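 Mortality was scored 24 h after larvae of Plutella xylostella (10 per treatment, 3 repeats) fed on cabbage leaves immersed 3 s in test solution and dried at room temperature. It was computed relative to survivors in a water-treated control.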
# [2] = 500 ppm, spraying method, counted after 24 hours
SMILES,Pseudaletia separate Walker Mortality (%) 500 ppm ([1]; in vivo) [%],Aphis craccivoral Mortality (%) 500 ppm (Aphis craccivoral) [%],Nilaparvata lugens Mortality (%) 500 ppm (Nilaparvata lugens) [%],Plutella xylostella Mortality (%) 500 ppm (Plutella xylostella) [%],further results
C[N+]1=C(C(=Cc2ccoc2)[N+](=O)[O-])N(Cc2ccc(Cl)nc2)CC1.[Cl-] [Compound 245],100,100,100,100,–
O=[N+]([O-])C(=Cc1ccc(Br)s1)C1=NCCCN1Cc1ccc(Cl)nc1 [Compound 65],92,73,100,100,–
O=[N+]([O-])C(=Cc1cc(Cl)c(Cl)o1)C1=NCCN1Cc1ccc(Cl)nc1 [Compound 8],100,100,100,100,–
O=[N+]([O-])C(=Cc1cc(Cl)c(Cl)s1)C1=NCCN1Cc1ccc(Cl)nc1 [Compound 23],100,100,100,100,–
O=[N+]([O-])C(=Cc1oc(Cl)cc1Cl)C1=NCCN1Cc1cnc(Cl)s1 [Compound 76],100,100,100,100,–
O=[N+]([O-])C(=Cc1ccsc1)C1=NCCN1Cc1ccc(Cl)nc1 [Compound 17],100,100,100,100,–
N#CC(=Cc1cc(Br)c(Br)o1)C1=NCCN1Cc1ccc(Cl)nc1 [Compound 144],90,87,100,100,–
O=[N+]([O-])C(=Cc1ccc(F)nc1)C1=NCCN1Cc1ccc(Cl)nc1 [Compound 41],100,89,87,100,–
C[N+]1=C(C(=Cc2cc(Br)cs2)[N+](=O)[O-])N(Cc2ccc(Cl)nc2)CC1.[Cl-] [Compound 265],100,100,100,100,–
CC[N+]1=C(C(=Cc2ccc([N+](=O)[O-])o2)[N+](=O)[O-])N(Cc2ccc(Cl)nc2)CC1.[Cl-] [Compound 287],100,100,100,100,–
N#CC(=Cc1cc(Br)cs1)C1=NCCN1Cc1ccc(Cl)nc1 [Compound 148],100,97,100,100,–
O=[N+]([O-])C(=Cc1ccsc1)C1=NCCCN1Cc1ccc(Cl)nc1 [Compound 62],100,90,100,100,–
O=[N+]([O-])C(=Cc1oc(Cl)cc1Cl)C1=NCCN1Cc1ccccc1 [Compound 109],60,91,100,56,–
C[N+]1=C(C(=Cc2cc(Cl)co2)[N+](=O)[O-])N(Cc2ccc(Cl)nc2)CC1.[Cl-] [Compound 249],100,100,100,100,–
CC(c1ccc(Cl)nc1)N1CCN=C1C(=Cc1cccs1)[N+](=O)[O-] (racemic) [Compound 127],100,100,100,100,–
O=[N+]([O-])C(=Cc1cc(Br)co1)C1=NCCCN1Cc1ccc(Cl)nc1 [Compound 52],100,100,100,100,–
C[N+]1=C(C(=Cc2cccs2)[N+](=O)[O-])N(Cc2cnc(Cl)s2)CC1.[Cl-] [Compound 280],100,100,100,100,–
O=[N+]([O-])C(=Cc1cccnc1)C1=NCCN1Cc1ccc(Cl)nc1 [Compound 38],95,97,100,87,–
"CCN(Cc1ccc(Cl)nc1)C(=N\C)/C(=C\c1ccco1)[N+](=O)[O-] [Compound 151, N-((6-chloropyridin-3-yl)methyl)-N-ethyl-3-(furan-2-yl)-N′-methyl-2-nitro acrylamidine]",–,–,–,–,"mortality at 500 ppm ([1]; 24 h): 86%; mortality at 500 ppm (Aphis craccivoral; 24 h): 76%; mortality at 500 ppm (Nilaparvata lugens; 24 h): 87%; mortality at 500 ppm (Plutella xylostella; in Brassica oleracea, 24 h): 79%"
"CCN(Cc1ccc(Cl)nc1)C(=N\C)/C(=C\c1ccc[nH]1)[N+](=O)[O-] [Compound 160, N-((6-chloropyridin-3-yl)methyl)-N-ethyl-N′-methyl-2-nitro-3-(1H-pyrrol-2-yl) acrylamidine]",–,–,–,–,"mortality at 500 ppm ([1]; 500 ppm, dipped maize leaves fed, counted after 24 hours): 64%; mortality at 500 ppm (Aphis craccivoral; 500 ppm, immersion 5 seconds, counted after 24 hours): 56%; mortality at 500 ppm (Nilaparvata lugens; 500 ppm, spraying, counted after 24 hours): 54%; mortality at 500 ppm (Plutella xylostella; 500 ppm, dipped cabbage leaves fed, counted after 24 hours): 100%"
O=[N+]([O-])C(=Cc1ccc(CO)o1)C1=NCCCN1Cc1ccc(Cl)nc1 [Compound 60],84,47,56,100,–
CC(=C(C1=NCCN1Cc1ccc(Cl)nc1)[N+](=O)[O-])c1ccoc1 [Compound 112],68,56,76,53,–
CC(=C(C1=NCCN1Cc1ccc(Cl)nc1)[N+](=O)[O-])c1ccc(C)o1 [Compound 114],10,92,100,30,–
CC(=C(C1=NCCN1C(C)c1ccc(Cl)nc1)[N+](=O)[O-])c1ccoc1 (racemic) [Compound 134],52,38,51,46,–
N#CC(=Cc1oc(Cl)cc1Cl)C1=NCCN1Cc1ccc(Cl)nc1 [Compound 143],86,75,100,85,–
C[N+]1=C(C(=Cc2cc(Cl)cs2)[N+](=O)[O-])N(Cc2ccc(Cl)nc2)CC1.[Cl-] [Compound 264],100,100,100,100,–
N#CC(=Cc1sc(Cl)cc1Cl)C1=NCCN1Cc1ccc(Cl)nc1 [Compound 150],–,–,–,–,"Pseudaletia separate Walker Mortality (%) ([1]; 500 ppm, maize leaf dipping and feeding, counted after 24 hours): 100%; Aphis craccivoral Mortality (%) (Aphis craccivoral; 500 ppm, immersion method): 95%; Nilaparvata lugens Mortality (%) (Nilaparvata lugens; [2]): 100%; Plutella xylostella Mortality (%) (Plutella xylostella; 500 ppm, feeding dipped cabbage leaves, counted after 24 hours): 100%"
O=[N+]([O-])C(=Cc1ccc[nH]1)C1=NCCN1Cc1ccc(Cl)nc1 [Compound 31],100,100,100,100,–
"O=[N+]([O-])/C(=C/c1ccco1)C1=NCCN1Cc1ccc(Cl)nc1 [Compound 1, 2-chloro-5-((2-(2-(furan-2-yl)-1-nitrovinyl)-4,5-dihydroimidazol-1-yl)-methyl) pyridine]",–,–,–,–,"Pseudaletia separate Walker Mortality (%) 500 ppm ([1]; 500 ppm, leaf dipping and feeding, counted after 24 hours): 100%; mortality at 500 ppm (Aphis craccivoral; 500 ppm, immersion method): 100%; mortality at 500 ppm (Nilaparvata lugens; [2]): 100%; mortality at 500 ppm (Plutella xylostella; 500 ppm, feeding dipped leaves, counted after 24 hours): 100%"
C[N+]1=C(C(=Cc2ccc(Cl)o2)[N+](=O)[O-])N(Cc2ccc(Cl)nc2)CC1.[Cl-] [Compound 247],100,100,100,100,–
